Test results reported in patent US20230331601A1, “METHOD FOR WATER PURIFICATION AND SANITIZATION” (YISSUM RESEARCH DEVELOPMENT COMPANY OF THE HEBREW …, priority 2020, published 2023).

Experiments:
Assay type in all cases: physicochemical
[1] = Decolorization of Rhodamine B solution monitored with UV-Vis spectroscopy; conditions: 125 ppm RhB solution (Example 2 conditions)
From the text: UV-Vis spectroscopy: 1800 UV spectrophotometer, Shimadzu, Japan.
Rhodamine B (RhB) is a water-soluble chemical dye which is commonly used as a benchmark to assess the potency of oxidants to decompose organic pollutants in aqueous solution and measure the rate of degradation. De-colorization of RhB solution, that is, the disappearance of the characteristic intense pink color, is readily visible as the decomposition of the dye advances under the action of the tested oxidant and the oxidation reaction can be monitored with UV-Vis spectroscopy. […] Decolorization of 1000 ppm and 125 ppm RhB solutions was completed within eleven minutes and two minutes, respectively, i.e., well before the end of the experiments.

[2] = Degradation of carbamazepine by sodium hydroxide and hydrogen peroxide with phase transfer catalyst and added oxygen (LC-MS)
Procedure: A 50 ml round bottom flask equipped with a magnetic stirrer was charged with 10 ml of water polluted with 1-100 ppm of carbamazepine (concentrations of 1, 10 and 100 ppm were examined). Sodium hydroxide (0.5 g) was rapidly added followed by addition of 0.02 ml of a phase transfer catalyst (Aliquat 336) Next, 1 ml of aqueous hydrogen peroxide (30% solution) was introduced over 5 minutes. After the addition of hydrogen peroxide, the mixture was held under stirring and pure oxygen was bubbled to the system at a flow rate of 0.5 ml/min over 10 minutes. For each experiment, at the end of the process the final reaction mixture was extracted with 5 ml of Acetone: hexane solution (1:1) and carbamazepine remnant concentration was measured by LC-MS, QTOF 6520, manufactured by Agilent.

[3] = Degradation of xylene by sodium hydroxide and hydrogen peroxide with Aliquat 336, with and without added oxygen (GC-FID)
Procedure: Experiment A: In the reference experiment, a 50 ml round bottom flask equipped with a magnetic stirrer was charged with 10 ml of water polluted with 100 ppm of xylene. Sodium hydroxide (0.5 g) was rapidly added followed by addition of 0.02 ml of a phase transfer catalyst (Aliquat 336) Next, 1 ml of aqueous hydrogen peroxide (30% solution) was introduced over 5 minutes. After the addition of hydrogen peroxide solution has been completed, the mixture was held under stirring for ten minutes.
Experiment B: To assess the effect of added oxygen, the procedure set forth above was repeated but after the addition of hydrogen peroxide, pure oxygen was bubbled to the system at a flow rate of 1 ml/min over 30 minutes. Upon completion of O2 addition, the mixture was stirred for ten minutes.
For each experiment, samples (0.5 ml) were taken from the reaction mixture at intervals of one minute during the ten minutes hold time and the concentration of remnant xylene was measured by GC-FID. The final reaction mixture was extracted with dichloromethane (10 ml) and analyzed by GC-FID as previously described.

CCN(CC)c1ccc2c(-c3ccccc3C(=O)O)c3ccc(=[N+](CC)CC)cc-3oc2c1.[Cl-] [Rhodamine B]
Time to complete decolorization [1]: two

NC(=O)N1c2ccccc2C=Cc2ccccc21 [carbamazepine]
conversion rate ([2]; 1 ppm carbamazepine in water): ~ 70%
conversion ([2]; 10 ppm carbamazepine in water): > 90%
conversion ([2]; 100 ppm carbamazepine in water): > 90%
removal rates ([2]; low pollution level of 1 to 10 ppm): 70 to 90%

Xylene
Hold time to reach complete oxidation of the pollutant ([3]; Experiment A: 100 ppm xylene, absence of added oxygen): ten
Hold time to reach complete oxidation of the pollutant ([3]; Experiment B: 100 ppm xylene, with added oxygen 1 ml/min over 30 minutes): about six
